# Tests used:
# RXRβ = target: T1, RXRβ (Homo sapiens, UniProt P28702); assay: Retinoid activation assay, RXRβ (Schneider SL-3 cells, luciferase reporter); assay type: cell-based; settings: read-out: Activation EC50 RXR β
# T1 construct: Full length RXR cDNA is used for transfection; expressed in transfected cells; host or cells: Schneider SL-3 cells (Drosophila)
# T1 sequence (P28702 1-533): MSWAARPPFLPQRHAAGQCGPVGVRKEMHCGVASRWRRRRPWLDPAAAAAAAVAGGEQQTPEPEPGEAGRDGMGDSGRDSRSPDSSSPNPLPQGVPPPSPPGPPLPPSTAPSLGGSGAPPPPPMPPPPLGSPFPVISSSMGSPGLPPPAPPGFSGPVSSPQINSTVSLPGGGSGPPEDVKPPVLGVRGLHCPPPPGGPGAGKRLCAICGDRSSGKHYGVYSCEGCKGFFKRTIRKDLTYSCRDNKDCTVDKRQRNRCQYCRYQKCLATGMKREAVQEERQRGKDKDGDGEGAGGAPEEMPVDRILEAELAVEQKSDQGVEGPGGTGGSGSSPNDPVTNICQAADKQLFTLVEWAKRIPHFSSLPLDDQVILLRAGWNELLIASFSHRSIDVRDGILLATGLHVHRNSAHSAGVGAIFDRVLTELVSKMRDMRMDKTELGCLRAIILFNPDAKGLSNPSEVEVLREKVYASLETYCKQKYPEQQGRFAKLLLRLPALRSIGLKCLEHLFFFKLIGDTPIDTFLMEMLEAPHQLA
# Description: Full length RXR cDNA is used for transfection. As reporter system, the luciferase gene is used in a construct with three copies of a RXR response element from rat CRBP gene, (formerly RARE from betaRAR gene), fused to alcoholdehydrogenase gene promoter in the plasmid pGL2-basic. Schneider SL-3 cells from Drosophila are transiently transfected 3-4 h before the experiment by the Ca-phosphate-DNA coprecipitation method. […] At the end of the incubation, the cell supernatants are assayed for luciferase activity. Results are given as EC50 (nM), the concentration leading to half-maximal activation.
# [1] = system: healthy, non-inflamed human skin; assay: Topical application on healthy human skin, clinical pilot trial; assay type: in vivo; set-up: key to Skin inflammation score (scale 0-4): 0: no signs or symptoms of skin inflammation; 1: slight erythema, desquamation and pruritus; 2: moderate erythema, desquamation and pruritus; 3: marked erythema, desquamation, pruritus/burning; 4: severe erythema, desquamation, pruritus, burning or even pain, edema, exsudation, ulceration; settings: for Irritation or inflammation of the skin: human volunteer, 1% concentration daily to the skin for 2 weeks; for Skin inflammation score (scale 0-4): day 17
# Excerpt: In a clinical pilot trial on one healthy volunteer compound 15 is applied epicutaneously in a concentration of 1% for its inflammation potential compared to that of the strong inflammation inducing agent 9-cis RA in concentrations of 0.1%, 0.3% and 1%.
# The compounds are solved or suspended in ethanol/propylene glycol (1:1). They are applied epicutaneously twice daily, 7 days a week, for two concecutive weeks. The site of application is an area of 3×3=9 cm^2 on the abdominal skin. The volume is 0.1 ml per application.
# The following signs and symptoms of skin inflammation are recorded: Erythema, desquamation (scaling), pruritus, burning, pain, exsudation, edema, ulceration. They are classified on a scale of: • 0=no signs or symptoms of skin inflammation • 1=slight erythema, desquamation and pruritus • 2=moderate erythema, desquamation and pruritus • 3=marked erythema, desquamation, pruritus/burning • 4=severe erythema, desquamation, pruritus, burning or even pain, edema, exsudation, ulceration
# Treatment period lasts from day 1 to 14, the post-treatment observation period from day 15 to day 28.
# RARα = target: T2, RARα (Homo sapiens, UniProt P10276); assay: Retinoid activation assay, RARα (COS-1 cells, SeAP reporter); assay type: cell-based; settings: read-out: Activation EC50 RAR α
# T2 sequence (P10276 183-417 limits assumed): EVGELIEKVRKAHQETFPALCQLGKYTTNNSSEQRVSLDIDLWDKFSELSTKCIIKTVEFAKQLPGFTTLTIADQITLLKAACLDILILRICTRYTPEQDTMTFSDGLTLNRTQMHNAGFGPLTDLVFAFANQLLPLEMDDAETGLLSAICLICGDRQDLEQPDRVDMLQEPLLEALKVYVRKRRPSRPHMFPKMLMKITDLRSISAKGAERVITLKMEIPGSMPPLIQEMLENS
# Description: (§1) Chimeric RAR cDNAs are used for transfection which contain the DNA binding region of the estrogen receptor. As reporter system, the SeAp (secreted alkaline phosphatase) gene under control of the vitellogenin estrogen response element fused to the herpes simplex thymidinkinase promoter (vit-TK-SeAP) is used. The galactosidase expression vector pCH110 serves to correct for variation in transfection efficiency. […] At the end of the incubation, the cell supernatants are assayed for SeAP activity. Results are given as EC50 (nM), the concentration leading to half-maximal activation.
# RARγ = target: T3, RARγ (Homo sapiens, UniProt P13631); assay: Retinoid activation assay, RARγ (COS-1 cells, SeAP reporter); assay type: cell-based; settings: read-out: Activation EC50 RAR γ
# T3 sequence (P13631 185-454 limits assumed): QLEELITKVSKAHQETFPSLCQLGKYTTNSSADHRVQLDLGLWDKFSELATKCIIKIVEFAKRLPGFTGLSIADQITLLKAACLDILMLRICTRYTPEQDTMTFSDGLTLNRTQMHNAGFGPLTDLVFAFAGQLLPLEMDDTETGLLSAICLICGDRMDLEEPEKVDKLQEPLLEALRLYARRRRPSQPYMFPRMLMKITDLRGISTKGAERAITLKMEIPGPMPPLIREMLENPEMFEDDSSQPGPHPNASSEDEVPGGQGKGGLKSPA
# Description: as §1
# MMP-1 mRNA = MMP-1 mRNA in synovial fibroblasts (real time PCR); assay type: cell-based, human
# Description: Furthermore, it is determined whether this is accompanied by a modulation in the accumulation of the mRNA encoding catabolic enzyme matrix metalloproteinase-1 (MMP-1), responsible for degradation of human cartilage and consequently joint destruction in man. Adherent synovial fluid cells taken from a patient with RA are used after 5 passages in an in vitro assay for cartilage destruction. The cells incubated in flasks coated with 0.1% (0.1 g/100 ml) human cartilage powder are fixed using Matrigel® (BD Biosciences, Becton, Dickinson & Co., Boston, Mass., USA).
# This is conducted in the presence or absence of IL-1β (100 pg/ml).
smiles,measurement,setting,value
"C/C(=C/C=C/C(C)=C/C(=O)O)c1cc2c(cc1C)C(C)(C)CCCC2 [Compound 13, (2E,4E,6Z)-3-Methyl-7-(3,5,5,-trimethyl-6,7,8,9-tetrahydro-5H-benzocyclohepten-2-yl)-octa-2,4,6-trienoic acid]",EC50,RXRβ,77 nM
CC1=C(C#CC2=C(/C=C/C(C)=C/C(=O)O)CCCCC2)C(C)(C)CCC1 [Compound 18],EC50,RXRβ,≥ 10000 nM
"CC1=C(/C=C/C2=C(/C=C/C(C)=C/C(=O)O)CCCCC2)C(C)(C)CCC1 [Compound 1, (2E,4E)-3-methyl-5-[2-[(E)-2-(2,6,6-trimethyl-1-cyclohexen-1-yl)ethenyl]-1-cyclohepten-1-yl]-2,4-pentadienoic acid]",Irritation or inflammation of the skin,[1],does not induce any irritation or inflammation of the skin
"CCC1(CC)CCC(C)(C)c2cc(\C(C)=C/C=C/C(C)=C/C(=O)O)ccc21 [Compound 24, (2E,4E,6Z)-7-(5,5-Diethyl-8,8-dimethyl-5,6,7,8-tetrahydro-naphthalen-2-yl)-3-methyl-octa-2,4,6-trienoic acid]",EC50,RXRβ,≥ 10000 nM
same,EC50,RARα,54 nM
same,EC50,RARγ,16.1 nM
"CC1=C(/C=C/C2=C(/C=C/C(C)=C/C(=O)O)CCC2)C(C)(C)CCC1 [Compound 14, (2E,4E)-3-Methyl-5-[2-[(E)-2-(2,6,6-trimethyl-1-cyclohexen-1-yl)ethenyl]-1-cyclopenten-1-yl]-2,4-pentadienoic acid]",EC50,RXRβ,270 nM
same,EC50,RARα,150 nM
same,EC50,RARγ,150 nM
"CC(/C=C/C1=C(c2ccc3c(c2)C(C)(C)CCC3(C)C)CCCC1)=C\C(=O)O [Compound 6, (2E,4E)-3-Methyl-5-[2-(5,5,8,8-tetramethyl-5,6,7,8-tetrahydro-naphthalen-2-yl)-cyclohex-1-enyl]-penta-2,4-dienoic acid]",EC50,RXRβ,1850 nM
"CC1=C(/C=C/C(C)=C\C=C\C(C)=C\C(=O)O)C(C)(C)CCC1 [9-cis RA, 9-cis retinoic acid, reference compound]",Skin inflammation score (scale 0-4),[1]; 0.1% epicutaneously twice daily day 1-14,1
same,Skin inflammation (in words),"[1]; 0.1% epicutaneously twice daily, days 12, 13 and 14",moderate inflammation
same,Skin inflammation score (scale 0-4),[1]; 0.3% epicutaneously twice daily day 1-14,2
same,Skin inflammation (in words),"[1]; 0.3% epicutaneously twice daily, days 12, 13 and 14",moderate inflammation
same,Skin inflammation score (scale 0-4),[1]; 1% epicutaneously twice daily day 1-14,3
same,Skin inflammation (in words),"[1]; 1.0% epicutaneously twice daily, days 12, 13 and 14",marked inflammation
same,"MMP-1 mRNA, fold increase of baseline value","MMP-1 mRNA; 10^−7 M, after 24 hours",2.60 relative units
same,"MMP-1 mRNA, fold increase of baseline value","MMP-1 mRNA; 10^−8 M, 0 hours",1 relative units
same,"MMP-1 mRNA, fold increase of baseline value","MMP-1 mRNA; 10^−8 M, 2 hours",0.98 relative units
same,"MMP-1 mRNA, fold increase of baseline value","MMP-1 mRNA; 10^−8 M, 6 hours",1.31 relative units
same,"MMP-1 mRNA, fold increase of baseline value","MMP-1 mRNA; 10^−8 M, 12 hours",3.39 relative units
same,"MMP-1 mRNA, fold increase of baseline value","MMP-1 mRNA; 10^−8 M, 24 hours",3.79 relative units
same,"MMP-1 mRNA, fold increase of baseline value","MMP-1 mRNA; 10^−8 M, 48 hours",1.47 relative units
same,"MMP-1 mRNA, fold increase of baseline value","MMP-1 mRNA; 10^−8 M, after 24 hours",3.39 relative units
same,"MMP-1 mRNA, fold increase of baseline value","MMP-1 mRNA; 10^−9 M, after 24 hours",1.54 relative units
CC(/C=C/c1sccc1-c1ccc2c(c1)C(C)(C)CCC2(C)C)=C\C(=O)O [Compound 9],EC50,RARα,2300 nM
same,EC50,RARγ,890 nM
"CC(/C=C/[C@@H]1C[C@@H]1c1ccc2c(c1)C(C)(C)CCC2(C)C)=C\C(=O)O (racemic) [Compound 4, (2E,4E)-3-methyl-5-[(1RS,2RS)-2-(5,5,8,8-tetramethyl-5,6,7,8-tetrahydro-naphthalen-2-yl)-cyclopropyl]-penta-2,4-dienoic acid]",EC50,RARγ,1000 nM
"CC1=C(/C=C/c2sccc2/C=C/C(C)=C/C(=O)O)C(C)(C)CCC1 [Compound 5, (2E,4E)-3-Methyl-5-[2-[(E)-2-(2,6,6-trimethyl-1-cyclohexen-1-yl)ethenyl]-3-thienyl]-2,4-pentadienoic acid]",EC50,RXRβ,50 nM
same,EC50,RARα,170 nM
same,EC50,RARγ,170 nM
"CCCCOc1c(\C(C)=C/C=C/C(C)=C/C(=O)O)cc(C(C)(C)C)cc1C(C)(C)C [Compound 15, (2E,4E,6Z)-7-[2-butoxy-3,5-bis(1,1-dimethylethyl)phenyl]-3-methyl-2,4,6-octatrienoic acid]",Skin inflammation (in words),"[1]; 1% epicutaneously twice daily day 1-14, observation to day 28",well tolerated with no skin inflammation
same,Skin inflammation (in words),"[1]; 1% epicutaneously twice daily day 1-14, observation to day 28, listed as Compound A",does not induce any objective or subjective symptoms
same,Irritation or inflammation of the skin,[1],does not induce any irritation or inflammation of the skin
same,"MMP-1 mRNA, fold increase of baseline value","MMP-1 mRNA; 10^−7 M, after 24 hours",0.68 relative units
same,"MMP-1 mRNA, fold increase of baseline value","MMP-1 mRNA; 10^−8 M, 0 hours",1 relative units
same,"MMP-1 mRNA, fold increase of baseline value","MMP-1 mRNA; 10^−8 M, 2 hours",1.13 relative units
same,"MMP-1 mRNA, fold increase of baseline value","MMP-1 mRNA; 10^−8 M, 6 hours",0.81 relative units
same,"MMP-1 mRNA, fold increase of baseline value","MMP-1 mRNA; 10^−8 M, 12 hours",1.12 relative units
same,"MMP-1 mRNA, fold increase of baseline value","MMP-1 mRNA; 10^−8 M, 24 hours",0.87 relative units
same,"MMP-1 mRNA, fold increase of baseline value","MMP-1 mRNA; 10^−8 M, 48 hours",0.83 relative units
same,"MMP-1 mRNA, fold increase of baseline value","MMP-1 mRNA; 10^−8 M, after 24 hours",1.12 relative units
same,"MMP-1 mRNA, fold increase of baseline value","MMP-1 mRNA; 10^−9 M, after 24 hours",1.05 relative units
"CC(/C=C/C1=C(c2ccc3c(c2)C(C)(C)CCC3(C)C)CCC1)=C\C(=O)O [Compound 12, (2E,4E)-3-Methyl-5-[2-(5,5,8,8-tetramethyl-5,6,7,8-tetrahydro-naphthalen-2-yl)-cyclopent-1-enyl]-penta-2,4-dienoic acid]",EC50,RXRβ,60 nM
same,EC50,RARα,370 nM
same,EC50,RARγ,200 nM
"CC(/C=C/c1ccccc1-c1ccc2c(c1)C(C)(C)CCC2(C)C)=C\C(=O)O [Compound 7, (2E,4E)-3-methyl-5-[2-(5,5,8,8-tetramethyl-5,6,7,8-tetrahydro-naphthalen-2-yl)-phenyl]-penta-2,4-dienoic acid]",EC50,RXRβ,330 nM
